Test results reported in publication PMC8233510 (Molecular Biology and Evolution, 2021).

Tests used:
Assay in all cases: […]-SAM radiochemical methyltransferase assay, Michaelis-Menten fit
Settings in all cases: SAM 320 μM (saturating), 50 mM Tris-HCl, 24 °C
PcCS2 = format: biochemical, Paullinia cupana
TcAncCS2 = format: biochemical, synthetic construct
TcAncCS1 = format: biochemical, synthetic construct
TcCS2 = format: biochemical, Theobroma cacao
CsAncCS = format: biochemical, synthetic construct
PcCS1 = format: biochemical, Paullinia cupana
TcCS1 = format: biochemical, Theobroma cacao
PcAncCS1 = format: biochemical, synthetic construct

Q: What does the source list for Cn1c(=O)[nH]c(=O)c2[nH]cnc21 [3X, 3-methylxanthine]?
A: Km (PcCS2): 677 µM; Km (TcAncCS2): 154 µM; Km (TcAncCS1): 139 µM; Km (TcCS2): 49.1 µM

Q: With Cn1cnc2[nH]c(=O)[nH]c(=O)c21 [7X, 7-methylxanthine] as the compound, how does the Km (TcAncCS1) read?
A: 34.6 µM

Q: And the Km (CsAncCS)?
A: 26.7 µM

Q: What does the source list for O=c1[nH]c(=O)c2[nH]cnc2[nH]1 [X, xanthine]?
A: Km (TcAncCS2): 4.14 µM; Km (PcCS1): 95.4 µM; Km (TcCS1): 95.8 µM; Km (TcAncCS1): 53.4 µM; Km (PcAncCS1): 418 µM
